# PubChem BioAssay AID588780 (Sanford-Burnham Center for Chemical Genomics, 2011)
# Calls of active or inactive are those of the source.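 Rule for the calls: active = compounds whose fitted half-maximal concentration in the cell-protection dose series is at or below a set limit; inactive = the rest.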
# Test system: H9c2 cardiomyocytes, 2-deoxyglucose stress, ATP luminescence, 2 h
# Test: protection of cardiomyocytes from 2-deoxyglucose injury, dose response, cell-based, 2-deoxyglucose stress, uHTS hits (AID 588780)
row,SMILES,IC50
1,C[C@H](NC(=O)c1nc[nH]c1C(=O)NCC(=O)OCc1ccccc1)c1ccccc1,13.6 µM
2,O=C(CNC(=O)c1ccc(F)cc1)N/N=C/c1cc(Br)ccc1OC(=O)/C=C/c1ccco1,> 79 µM (inactive)
3,Brc1ccc(-c2ccc(/C=N/Nc3nc(N4CCOCC4)nc(N4CCOCC4)n3)o2)cc1,> 79 µM (inactive)
4,COCCn1cnc2c(c1=O)c1nc3ccccc3nc1n2/N=C/c1cccc(OC)c1,38 µM (inactive)
5,Cc1ccc(CNC(=O)c2oc3ccc(S(=O)(=O)N4CCOCC4)cc3c2C)cc1,14.1 µM
6,COc1ccc(-c2ccc3c(c2)S(=O)(=O)c2cccc(C(=O)NC[C@@H]4CCCO4)c2C3=O)cc1OC,12.8 µM
7,Cc1cc(O)c(C=Nc2ccc(N3CCOCC3)cc2)c(C)c1Cl,> 79 µM (inactive)
8,CCN(C[C@H]1N[C@@](Cc2ccccc2)(C(=O)OC)[C@H]2C(=O)N(C)C(=O)[C@@H]12)S(=O)(=O)c1ccc(OC)cc1,37.2 µM (inactive)
9,COc1cccc(C(c2nnnn2Cc2ccccc2)N2CCN(C3CCCC3)CC2)c1OC (centres undefined),35.5 µM (inactive)
10,CCCN(CCC)S(=O)(=O)c1ccc(C(=O)Nc2nnc(-c3cc(OC)cc(OC)c3)o2)cc1,9.06 µM
11,COC(=O)c1ccc(C(=O)OC)c(NC(=O)COC(=O)C23CC4CC(CC(O)(C4)C2)C3)c1,9.67 µM
12,CCCCn1nc(NC(=O)c2cccs2)c2cc3ccccc3nc21,18.2 µM
13,COc1ccc(OC)c(/C=N/Nc2nncn2/N=C/c2cc(OC)ccc2OC)c1,> 79 µM (inactive)
14,COc1ccc(NCc2cc3ccccc3[nH]c2=O)cc1,> 79 µM (inactive)
15,Oc1c(Br)cc(Br)cc1C=NCc1ccccc1,> 79 µM (inactive)
16,COc1cc(OC)cc(C(=O)Nc2ccc(C(=O)Nc3ccccc3OC)cc2)c1,15.9 µM
17,COc1ccccc1NS(=O)(=O)c1cc(NC(=O)CCc2nc3ccccc3c(=O)[nH]2)ccc1C,11.4 µM
18,Cc1cc(C(=O)COc2ccccc2C(N)=O)c(C)n1C,25.3 µM
19,O=C(CC1CC2CCC1C2)Nc1nc(-c2ccccn2)cs1 (centres undefined),> 79 µM (inactive)
20,CC(=O)Nc1ccc(S(=O)(=O)N(Cc2ccco2)Cc2cc3ccccc3[nH]c2=O)cc1,> 79 µM (inactive)
21,O=C1c2ccccc2NC(c2ccc(-c3ccc(Br)cc3)o2)N1O (centres undefined),19 µM
22,CCOc1cccc(-c2nn3c(-c4ccco4)nnc3s2)c1,22.6 µM
23,O=c1[nH]c2cc([N+](=O)[O-])ccc2c2ccccc12,> 79 µM (inactive)
24,COc1cccc(Nc2nc3ccccc3n3nnnc23)c1,14.6 µM

row,SMILES,IC50
1,O=C(COc1cccc(F)c1)Nc1nc(-c2ccccn2)cs1,30.9 µM (inactive)
2,CCc1nnc(NC(=O)CSc2nnc(CNc3ccc(OC)cc3)n2C)s1,> 79 µM (inactive)
3,Cc1cccc(NC(=O)COc2cccc3c2CCNC3=O)c1,> 79 µM (inactive)
4,COc1cc(NC(=O)c2cc3nc(-c4ccccc4)cc(-c4ccccc4)n3n2)cc(OC)c1OC,> 79 µM (inactive)
5,CC(=O)c1ccccc1OCCCN1CCCCC1,> 79 µM (inactive)
6,COc1cc(/C=N/NC(=O)c2ccccc2O)ccc1OCC(=O)Nc1ccccc1,> 79 µM (inactive)
7,CCOC(=O)N1CCC(NC(=O)c2cc3c(-c4ccccc4F)nn(C)c3s2)CC1,> 79 µM (inactive)
8,Cc1ccc2c(C)nc(Nc3nc(CSc4nc5ccccc5[nH]4)cc(=O)[nH]3)nc2c1,> 79 µM (inactive)
9,CC(=O)Nc1ccc(S(=O)(=O)N(Cc2cccnc2)Cc2cc3ccccc3[nH]c2=O)cc1,> 79 µM (inactive)
10,O=C1c2ccccc2NC(c2ccc([N+](=O)[O-])cc2)N1O (centres undefined),> 79 µM (inactive)
11,Cc1c(OCC(=O)NCCN2CCOCC2)ccc2c1oc(=O)c1ccccc12,10.9 µM
12,Cc1ccc(-c2n[nH]c(=O)c3ccccc23)cc1S(=O)(=O)Nc1ccccc1,> 79 µM (inactive)
13,O=C(c1cc(=O)[nH]c2ccccc12)N1CCN(S(=O)(=O)c2ccc3ccccc3c2)CC1,14.5 µM
14,CC(=O)c1ccc(-c2ccc(C(=O)Nc3nc(-c4ccccn4)cs3)o2)cc1,44.7 µM (inactive)
15,NC(=O)c1cccc(-c2coc3c(C(=O)NCCc4ccccc4)cccc23)c1,> 79 µM (inactive)
16,CC(OC(=O)Cn1[nH]c(=O)c2ccccc2c1=O)C(=O)Nc1cccc(Cl)c1 (centres undefined),> 79 µM (inactive)
17,COCCn1c(=NC(=O)c2nc3ccccc3s2)sc2cc(S(C)(=O)=O)ccc21,28.3 µM
18,Cc1ccccc1OCC(=O)NNC(=O)Cn1[nH]c(=O)c2ccccc2c1=O,> 79 µM (inactive)
19,C=CCn1cnc2c(c1=O)c1nc3ccccc3nc1n2/N=C/c1cc(OC)c(OC)c(OC)c1,> 79 µM (inactive)
20,O=C1c2ccccc2NC(c2cn[nH]c2-c2ccccc2)N1O (centres undefined),> 79 µM (inactive)
21,O=C(c1ccoc1)N1CCN(c2cc(-c3ccncc3)nc3cc(-c4cccc(Cl)c4)nn23)CC1,> 79 µM (inactive)
22,CC(C)(C)OC(=O)NCC12C=CC(O1)C1C(=O)N(Cc3ccccc3)C(=O)C12 (centres undefined),> 79 µM (inactive)
23,CCOC(=O)c1ccc(-c2ccc(/C=C(\C#N)C(=O)NCC3CCCO3)o2)cc1 (centres undefined),> 79 µM (inactive)
24,Cc1cc(C)c2ccc(N)nc2c1O,> 79 µM (inactive)

row,SMILES,IC50
1,O=C(Nc1cccnc1)c1sc(Nc2ccccc2)nc1-c1ccccc1,> 79 µM (inactive)
2,CCOC(=O)c1c(NC(=O)COC(=O)c2ccc(O)cc2)sc(C(=O)N(C)C)c1C,> 79 µM (inactive)
3,O=C(CCc1nc2ccccc2c(=O)[nH]1)NNC(=O)c1ccc(F)cc1,> 79 µM (inactive)
4,COc1cc(-c2cc(C(=O)OCC(=O)NC3CC3)c3ccccc3n2)cc(OC)c1OC,10.7 µM
5,Oc1c(Br)cc(Br)cc1C=Nc1ccc2c(c1)OCCO2,24.4 µM
6,CC(Oc1ccc(F)cc1)C(=O)Nc1nc(-c2ccccn2)cs1 (centres undefined),37.5 µM (inactive)
7,CC(C)N1C(=O)S/C(=C/c2ccc3c(c2)n(C)c(=O)n3C)C1=O,> 79 µM (inactive)
8,COCCOC(=O)N/C=C\c1nc2ccccc2c(=O)[nH]1,26.7 µM
9,O=C1OCCN1C(=O)[C@H]1[C@H](c2ccc([N+](=O)[O-])cc2)C(c2cccc(Cl)c2)=NN1c1ccc(Br)cc1,> 79 µM (inactive)
10,Cc1nn(C)cc1C(C(=O)NC1CCCCC1)N(C(=O)Cc1cccs1)c1ccc(Cl)cc1 (centres undefined),27.5 µM
11,Cc1ccc(C)c(C(=O)COC(=O)Cn2[nH]c(=O)c3ccccc3c2=O)c1,> 79 µM (inactive)
12,CCN(CC(=O)Nc1cc(Cl)ccc1C)C(=O)C1CCN(c2ncnc3sc(C)c(C)c23)CC1,> 79 µM (inactive)
13,O=C(COc1ccc(F)cc1)Nc1nc(-c2ccccn2)cs1,> 79 µM (inactive)
14,COCCN1Cc2cccc(C(=O)Nc3cccc(-c4nc5ccccc5[nH]4)c3)c2C1=O,> 79 µM (inactive)
15,COc1cccc(Nc2nc3ccccc3n3cnnc23)c1,12.5 µM
16,CCOC(=O)c1ccccc1NC(=O)CSc1ccc(-c2ccccn2)nn1,23.4 µM
17,C/C(=N\Nc1nnc2c3ccccc3n(C)c2n1)c1ccc(C)o1,> 79 µM (inactive)
18,Cc1ccccc1N(C(=O)c1snc(C(N)=O)c1N)C(C(=O)NCc1ccccc1)c1ccc(O)cc1 (centres undefined),17.8 µM
19,Cc1nn(-c2ccccc2)c(C)c1/C=N/NC(=O)c1cc(C(C)(C)C)[nH]n1,32.1 µM (inactive)
20,COc1ccc(-c2oc3ncnc(NCCN4CCOCC4)c3c2-c2ccc(OC)cc2)cc1,34.3 µM (inactive)
21,CS(=O)(=O)Nc1ccc(-c2ccc3nccn3c2)cc1,> 79 µM (inactive)
22,c1ccc(-c2nn3c(-c4ccco4)nnc3s2)nc1,43.9 µM (inactive)
23,O=C(CSc1ccc(-c2ccccn2)nn1)N1CCCc2ccccc21,> 79 µM (inactive)
24,O=C(OCC(=O)N1CCCCCC1)c1n[nH]c(=O)c2ccccc12,> 79 µM (inactive)

row,SMILES,IC50
1,COc1ccnc(Oc2ccccc2)c1C(=O)N/C=N/OCc1ccc(F)cc1Cl,> 79 µM (inactive)
2,Cc1ccc(-c2nn3c(-c4ccco4)nnc3c3ccccc23)cc1S(=O)(=O)NCC1CCCO1 (centres undefined),23.3 µM
3,O=C(COC(=O)CCc1nc2ccccc2c(=O)[nH]1)Nc1c(Cl)cccc1C(F)(F)F,> 79 µM (inactive)
4,Cc1nn(-c2ccccc2)c(Cl)c1C(=O)NNC(=O)c1ccccc1O,> 79 µM (inactive)
5,O=C(CSc1nc2ccccc2c(=O)[nH]1)c1ccc(O)cc1O,33.1 µM (inactive)
6,COc1ccc2[nH]c(=O)c(CN(Cc3ccco3)Cc3nnnn3Cc3ccccc3)cc2c1,> 79 µM (inactive)
7,COc1cc(-c2cc(NC(C)=O)c3ncc(-c4ccc(F)cc4)n3c2)cc(OC)c1OC,> 79 µM (inactive)
8,CC(C)(C)OC(=O)NCc1ccc(NC(=O)c2nc[nH]c2C(=O)NCCCCCCNC(=O)c2[nH]cnc2C(=O)Nc2ccc(CNC(=O)OC(C)(C)C)cc2)cc1,> 79 µM (inactive)
9,COc1ccc(Br)cc1/C=N/NC(=O)CNC(=O)/C=C/c1ccccc1,> 79 µM (inactive)
10,COc1cccc(OC)c1-c1nn2c(-c3ccco3)nnc2s1,> 79 µM (inactive)
11,O=C(CCc1nc2ccccc2c(=O)[nH]1)Nc1ccc(F)c([N+](=O)[O-])c1,6.81 µM
12,CC(=O)Nc1cc(-c2ccc(C(=O)N3CCOCC3)cc2)cn2c(-c3ccc(C(C)=O)cc3)cnc12,25.3 µM
13,CCCCN(Cc1nc2ccccc2c(=O)[nH]1)C(=O)CN1C(=O)NC2(CCCCC2)C1=O,> 79 µM (inactive)
14,COc1cc(C(=O)Nc2cccc(-c3nnc(-c4ccco4)o3)c2)ccc1OC(C)=O,> 79 µM (inactive)
15,COc1cccc(-c2cnc3c(NC=O)cc(-c4ccc(O)c(OC)c4)cn23)c1,> 79 µM (inactive)
16,COc1cc(/C=c2\s/c(=C(/C#N)C(=O)N3CCCC3)n(-c3ccccc3)c2=O)ccc1O,25 µM
17,CCN(C[C@H]1N[C@@](C)(C(=O)OC)[C@H]2C(=O)N(Cc3ccccc3)C(=O)[C@@H]12)C(=O)c1ccc(C(C)(C)C)cc1,> 79 µM (inactive)
18,Fc1ccc(NC(=S)Nc2ccc3nccnc3c2)cc1,> 79 µM (inactive)
19,CCOc1ccc(NC(=O)c2cc3c(C)nc4ccccc4c3o2)cc1,17.1 µM
20,COc1cc(/C=N/NC(=O)c2cccnc2)ccc1OS(=O)(=O)c1cc(C)ccc1C,> 79 µM (inactive)
21,Cc1ccc(S(=O)(=O)N2CCN(C(=O)CCc3nc4ccccc4c(=O)[nH]3)CC2)c(C)c1,> 79 µM (inactive)
22,Cc1ccc(-c2nn3c(C)nnc3s2)cc1NC(=O)COc1ccc(Cl)cc1,> 79 µM (inactive)
